In ChEMBL document CHEMBL1201862, “PubChem BioAssay data set” (2004):
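These data come from cells grown in 96-well plates and exposed to compound for 48 hours at five concentrations. GI50 = concentration required for 50% inhibition of growth.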 The source made the active and inactive calls. No stated cut-off is given here; in the data, active = GI50 up to about 1.1 µM and inactive = higher.

How the values were obtained:
Test in all cases: growth of human tumour cells (NCI), 48 h
SNB-19 = system: SNB-19
NCI-H522 = system: NCI-H522
IGROV-1 = system: IGROV-1
SK-MEL-28 = system: SK-MEL-28
UACC-62 = system: UACC-62
ACHN = system: ACHN
T47D = system: T47D
NCI-H23 = system: NCI-H23
MDA-MB-231 = system: MDA-MB-231
SF-268 = system: SF-268
U-251 = system: U-251
MDA-N = system: MDA-N
OVCAR-4 = system: OVCAR-4
SF-295 = system: SF-295
OVCAR-8 = system: OVCAR-8
SNB-75 = system: SNB-75
NCI/ADR-RES = system: NCI/ADR-RES
PC-3 = system: PC-3
SK-MEL-2 = system: SK-MEL-2
HL-60 = system: HL-60

SMILES	GI50 (SNB-19)	GI50 (NCI-H522)	GI50 (IGROV-1)	GI50 (SK-MEL-28)	GI50 (UACC-62)	GI50 (ACHN)	GI50 (T47D)	GI50 (NCI-H23)	GI50 (MDA-MB-231)	GI50 (SF-268)	GI50 (U-251)	GI50 (MDA-N)	GI50 (OVCAR-4)	GI50 (SF-295)	GI50 (OVCAR-8)	GI50 (SNB-75)	GI50 (NCI/ADR-RES)	GI50 (PC-3)	GI50 (SK-MEL-2)	GI50 (HL-60)
Nc1nc(N)c2ncn(-c3ccc(Br)cc3)c2n1	> 59.4 µM (inactive)	9.77 µM (inactive)	5.38 µM (inactive)	> 43.3 µM (inactive)	17.1 µM (inactive)	13.3 µM (inactive)	29.4 µM (inactive)	40.6 µM (inactive)	23.8 µM (inactive)	15.4 µM (inactive)	24.9 µM (inactive)	60.4 µM (inactive)	> 38.3 µM (inactive)	34.4 µM (inactive)	14.6 µM (inactive)	6.97 µM (inactive)	10.7 µM (inactive)	23 µM (inactive)	14.4 µM (inactive)	
COc1c2cc(C(C)(C)C)cc1Cc1cccc(c1O)Cc1cc(C(C)(C)C)cc(c1OC)Cc1cccc(c1O)Cc1cc(C(C)(C)C)cc(c1OC)Cc1cccc(c1O)C2	> 100 µM (inactive)	> 100 µM (inactive)		> 100 µM (inactive)	> 100 µM (inactive)	> 100 µM (inactive)	> 100 µM (inactive)	> 10 µM (inactive)	> 100 µM (inactive)	> 100 µM (inactive)	> 100 µM (inactive)	> 100 µM (inactive)		> 100 µM (inactive)	> 100 µM (inactive)	> 100 µM (inactive)	> 100 µM (inactive)	> 100 µM (inactive)	> 100 µM (inactive)	> 100 µM (inactive)
CCOC(=O)c1cc(C2(O)CCN(CC(C)CC)C2=O)c(-c2cc(C)no2)[nH]1 (stereo unspecified)	> 100 µM (inactive)		> 100 µM (inactive)	> 100 µM (inactive)	> 100 µM (inactive)		> 100 µM (inactive)	> 100 µM (inactive)	> 100 µM (inactive)	> 100 µM (inactive)	> 100 µM (inactive)	> 100 µM (inactive)	> 100 µM (inactive)	> 100 µM (inactive)	> 100 µM (inactive)	> 100 µM (inactive)	> 100 µM (inactive)	> 100 µM (inactive)	> 100 µM (inactive)	> 100 µM (inactive)
COc1cc(CN(C)N2C(=O)c3cccc4cc([N+](=O)[O-])cc(c34)C2=O)cc(OC)c1OC	> 100 µM (inactive)	70.3 µM (inactive)	> 100 µM (inactive)	> 100 µM (inactive)	> 100 µM (inactive)		> 100 µM (inactive)	> 100 µM (inactive)	81.3 µM (inactive)		> 100 µM (inactive)	> 100 µM (inactive)	> 100 µM (inactive)	54.6 µM (inactive)	> 100 µM (inactive)	25.2 µM (inactive)	> 100 µM (inactive)	> 100 µM (inactive)	> 100 µM (inactive)	> 100 µM (inactive)
C=CCOC(=O)Cn1cc(C)c(=O)[nH]c1=O	> 100 µM (inactive)		> 100 µM (inactive)	> 100 µM (inactive)	> 100 µM (inactive)	> 100 µM (inactive)	> 100 µM (inactive)	> 100 µM (inactive)	> 100 µM (inactive)	> 100 µM (inactive)	> 100 µM (inactive)	> 100 µM (inactive)	> 100 µM (inactive)	> 100 µM (inactive)	> 100 µM (inactive)	> 100 µM (inactive)	> 100 µM (inactive)	> 100 µM (inactive)	> 100 µM (inactive)	> 100 µM (inactive)
CNC(=S)/C(C#N)=C(\N)N1CCCC1	> 100 µM (inactive)	> 100 µM (inactive)	> 100 µM (inactive)	> 100 µM (inactive)	> 100 µM (inactive)	> 100 µM (inactive)	57.5 µM (inactive)	> 100 µM (inactive)	> 100 µM (inactive)	> 100 µM (inactive)	> 100 µM (inactive)	> 100 µM (inactive)			> 100 µM (inactive)		> 100 µM (inactive)	> 100 µM (inactive)	> 100 µM (inactive)	> 100 µM (inactive)
CC(C)[Si](CC1=CCCCC12C(=O)N(COCC[Si](C)(C)C)c1ccccc12)(C(C)C)C(C)C (stereo unspecified)	66.5 µM (inactive)	41.8 µM (inactive)	> 100 µM (inactive)	92.5 µM (inactive)	> 100 µM (inactive)	> 100 µM (inactive)	33.7 µM (inactive)	66.8 µM (inactive)	> 100 µM (inactive)	> 100 µM (inactive)	> 100 µM (inactive)	> 100 µM (inactive)	> 100 µM (inactive)	31.1 µM (inactive)	89.3 µM (inactive)	> 100 µM (inactive)	> 100 µM (inactive)	> 100 µM (inactive)	> 100 µM (inactive)	
CCCNC1=C2C[C@@H](C)C[C@@H](OC)[C@@H](OC(=O)CCCN)[C@H](C)/C=C(\C)[C@@H](OC(N)=O)[C@H](OC)/C=C\C=C(/C)C(=O)NC(=CC1=O)C2=O	14.6 µM (inactive)	5.02 µM (inactive)	16.1 µM (inactive)	17.6 µM (inactive)	13.9 µM (inactive)	19.4 µM (inactive)	12.7 µM (inactive)	11.6 µM (inactive)	14.1 µM (inactive)	15.3 µM (inactive)	11.4 µM (inactive)	10.3 µM (inactive)	18.7 µM (inactive)	18.7 µM (inactive)	20.7 µM (inactive)		28.8 µM (inactive)	12.6 µM (inactive)	14.9 µM (inactive)	2.13 µM (inactive)
CCOc1ccc(NC(=O)C(=O)Nn2c(N)nnc2N)cc1		> 100 µM (inactive)	> 100 µM (inactive)	> 100 µM (inactive)	> 100 µM (inactive)	> 100 µM (inactive)	> 100 µM (inactive)	> 100 µM (inactive)	> 100 µM (inactive)	> 100 µM (inactive)	> 100 µM (inactive)	> 100 µM (inactive)	> 100 µM (inactive)	> 100 µM (inactive)	> 100 µM (inactive)	> 100 µM (inactive)	> 100 µM (inactive)	> 100 µM (inactive)	> 100 µM (inactive)	> 100 µM (inactive)
CCOC(=O)c1nc2ccc(C(F)(F)F)cc2nc1Oc1cc(OC)c(OC)c(OC)c1	27.8 µM (inactive)		51.1 µM (inactive)	> 100 µM (inactive)	94.8 µM (inactive)	8.17 µM (inactive)	> 100 µM (inactive)		87.7 µM (inactive)	35.6 µM (inactive)	55.6 µM (inactive)	> 100 µM (inactive)	2.64 µM (inactive)	97.3 µM (inactive)	38.3 µM (inactive)	19.5 µM (inactive)	30.9 µM (inactive)	> 100 µM (inactive)	> 100 µM (inactive)	> 100 µM (inactive)
O=c1oc2c/c(=C\c3ccccc3)c(=O)c3cccc1c3-2	31.8 µM (inactive)	22.8 µM (inactive)	23 µM (inactive)	36.1 µM (inactive)	24.5 µM (inactive)	> 100 µM (inactive)	27.3 µM (inactive)	36.7 µM (inactive)	31.7 µM (inactive)	24.1 µM (inactive)	18.6 µM (inactive)	20.8 µM (inactive)		> 100 µM (inactive)	19.8 µM (inactive)	41.4 µM (inactive)	33.7 µM (inactive)	56 µM (inactive)		27.1 µM (inactive)
Cc1cn(CCCCCCOC(=O)NC(CCCNC(N)=O)C(=O)O)c(=O)[nH]c1=O (stereo unspecified)	> 100 µM (inactive)		> 100 µM (inactive)	> 100 µM (inactive)	> 100 µM (inactive)	> 100 µM (inactive)	> 100 µM (inactive)	> 100 µM (inactive)	> 100 µM (inactive)	> 100 µM (inactive)	> 100 µM (inactive)	> 100 µM (inactive)	> 100 µM (inactive)	> 100 µM (inactive)	> 100 µM (inactive)	> 100 µM (inactive)	> 100 µM (inactive)	> 100 µM (inactive)	> 100 µM (inactive)	> 100 µM (inactive)
Cc1cc(-c2nc3cc(F)ccc3s2)ccc1N	35.8 µM (inactive)	16.9 µM (inactive)	< 0.01 µM (active)	> 100 µM (inactive)	39.7 µM (inactive)	22.4 µM (inactive)	< 0.01 µM (active)	2.79 µM (inactive)	8.11 µM (inactive)	20.3 µM (inactive)	24.2 µM (inactive)	> 46.1 µM (inactive)		14.8 µM (inactive)	36.3 µM (inactive)	20.4 µM (inactive)	75.9 µM (inactive)	17 µM (inactive)	34.6 µM (inactive)	> 28.1 µM (inactive)
c1ccc([P+](c2ccccc2)(c2ccccc2)c2ccc([P+](c3ccccc3)(c3ccccc3)c3ccccc3)cc2)cc1	54.1 µM (inactive)	37.1 µM (inactive)	59.7 µM (inactive)	> 100 µM (inactive)	71.6 µM (inactive)	> 100 µM (inactive)	27.9 µM (inactive)	39.9 µM (inactive)	> 100 µM (inactive)	57.4 µM (inactive)	34.2 µM (inactive)	56.1 µM (inactive)		> 100 µM (inactive)	59.6 µM (inactive)	37.6 µM (inactive)	> 100 µM (inactive)	41.4 µM (inactive)	34.3 µM (inactive)	16 µM (inactive)
COc1ccc2c(=O)c(O)c(-c3ccc(OC)c(OC)c3)oc2c1	15.8 µM (inactive)	3.13 µM (inactive)	7.45 µM (inactive)	8.53 µM (inactive)	3.23 µM (inactive)	3.54 µM (inactive)	> 100 µM (inactive)		4.8 µM (inactive)	4.84 µM (inactive)	3.52 µM (inactive)	> 100 µM (inactive)	0.191 µM (active)	10.1 µM (inactive)	3.71 µM (inactive)		2.23 µM (inactive)	9.38 µM (inactive)		1.66 µM (inactive)
